Reference: patent US10005767B2, “Compositions and methods for inhibition of the JAK pathway” (Rigel Pharmaceuticals, Inc., priority 2009, dated 2018)

What follows are molecules tested on human primary T-cells, IL-2 stimulated proliferation (JAK-1 and JAK-3 dependent; reported as JAK3 activity) (assay: Human primary T-cell proliferation stimulated by IL-2 (Example 3)). Settings: Homo sapiens, T-cell, tested under conditions described in Example 3 (IL-2 stimulated human primary T-cell proliferation); read-out: ability to inhibit JAK3 activity, IC50 range (Table V).
Type: cell-based
Procedure, shortened: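 Peripheral-blood human T-cells pre-activated via TCR/CD28, IL-2-starved overnight, then cultured 72 h at 37 °C with compound in Yssel's medium containing IL-2 (80 U/mL in cell suspension). Proliferation read as viable-cell ATP by CellTiter-Glo luminescence; reduction versus control taken as JAK pathway inhibition.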

Row | SMILES | IC50
1 | Cc1cnc(Nc2cnc(N3CC4CN(C(=O)C5CC5)CC4C3)c(F)c2)nc1Nc1ccc2oc(=O)[nH]c2c1 (stereo not shown) [II-53, 5-{2-[6-(5-Cyclopropanecarbonyl-hexahydro-pyrrolo[3,4-c]pyrrol-2-yl)-5-fluoro-pyridin-3-ylamino]-5-methyl-pyrimidin-4-ylamino}-3H-benzooxazol-2-one] | < 500 nM
2 | Cc1cnc(Nc2cnc(N3CC4CC3CN4CC3CC3)c(F)c2)nc1Nc1ccc2oc(=O)[nH]c2c1 (stereo not shown) [II-54, 5-{2-[6-(5-Cyclopropylmethyl-2,5-diaza-bicyclo[2.2.1]hept-2-yl)-5-fluoro-pyridin-3-ylamino]-5-methyl-pyrimidin-4-ylamino}-3H-benzooxazol-2-one] | < 500 nM
3 | Cc1cnc(Nc2ccc(N3CCN(C)[C@H](C)C3)nc2)nc1Nc1ccc2oc(=O)[nH]c2c1 [II-55, (R)-5-(2-(6-(3,4-dimethylpiperazin-1-yl)pyridin-3-ylamino)-5-methylpyrimidin-4-ylamino)benzo[d]oxazol-2(3H)-one] | < 500 nM
4 | Cc1cnc(Nc2ccc(N3CCN(CC4CC4)[C@H](C)C3)nc2)nc1Nc1ccc2oc(=O)[nH]c2c1 [II-56, (R)-5-(2-(6-(4-(cyclopropylmethyl)-3-methylpiperazin-1-yl)pyridin-3-ylamino)-5-methylpyrimidin-4-ylamino)benzo[d]oxazol-2(3H)-one] | < 500 nM
5 | Cc1cnc(Nc2ccc(N3CCN(C(=O)C(F)(F)F)[C@H](C)C3)nc2)nc1Nc1ccc2oc(=O)[nH]c2c1 [II-57, (R)-5-(5-methyl-2-(6-(3-methyl-4-(2,2,2-trifluoroacetyl)piperazin-1-yl)pyridin-3-ylamino)pyrimidin-4-ylamino)benzo[d]oxazol-2(3H)-one] | < 500 nM
6 | Cc1cnc(Nc2ccc(N3CCC(F)(F)CC3)nc2)nc1Nc1ccc2oc(=O)[nH]c2c1 [II-59, 5-(2-(6-(4,4-difluoropiperidin-1-yl)pyridin-3-ylamino)-5-methylpyrimidin-4-ylamino)benzo[d]oxazol-2(3H)-one] | < 500 nM
7 | Cc1cnc(Nc2ccc(N3CCC(C)(C)CC3)nc2)nc1Nc1ccc2oc(=O)[nH]c2c1 [II-60, 5-(2-(6-(4,4-dimethylpiperidin-1-yl)pyridin-3-ylamino)-5-methylpyrimidin-4-ylamino)benzo[d]oxazol-2(3H)-one] | < 500 nM
8 | Cc1cnc(Nc2cnc(N3CC4CCC(C3)N4)c(C)c2)nc1Nc1ccc2oc(=O)[nH]c2c1 [II-61, 5-(2-(6-(3,8-diaza-bicyclo[3.2.1]octan-3-yl)-5-methylpyridin-3-ylamino)-5-methylpyrimidin-4-ylamino)benzo[d]oxazol-2(3H)-one] | < 500 nM
9 | Cc1cnc(Nc2cnc(N3CC4CCC(C3)N4C(=O)C(F)(F)F)c(C)c2)nc1Nc1ccc2oc(=O)[nH]c2c1 [II-63, 5-(5-methyl-2-(5-methyl-6-(8-(2,2,2-trifluoroacetyl)-3,8-diaza-bicyclo[3.2.1]octan-3-yl)pyridin-3-ylamino)pyrimidin-4-ylamino)benzo[d]oxazol-2(3H)-one] | < 500 nM
10 | Cc1cnc(Nc2cnc(N3CC4CCC(C3)N4C)c(C)c2)nc1Nc1ccc2oc(=O)[nH]c2c1 [II-64, 5-(5-methyl-2-(5-methyl-6-(8-methyl-3,8-diaza-bicyclo[3.2.1]octan-3-yl)pyridin-3-ylamino)pyrimidin-4-ylamino)benzo[d]oxazol-2(3H)-one] | < 500 nM
11 | Cc1cnc(Nc2cnc(C3CC4CCC(C3)N4C(=O)OC(C)(C)C)c(C)c2)nc1Nc1ccc2oc(=O)[nH]c2c1 (stereo not shown) [II-65, tert-butyl 3-(3-methyl-5-(5-methyl-4-(2-oxo-2,3-dihydrobenzo[d]oxazol-5-ylamino)pyrimidin-2-ylamino)pyridin-2-yl)-8-azabicyclo[3.2.1]octane-8-carboxylate] | < 500 nM
12 | Cc1cnc(Nc2cnc(C3CC4CCC(C3)N4)c(C)c2)nc1Nc1ccc2oc(=O)[nH]c2c1 (stereo not shown) [II-66, 5-(2-(6-(8-aza-bicyclo[3.2.1]octan-3-yl)-5-methylpyridin-3-ylamino)-5-methylpyrimidin-4-ylamino)benzo[d]oxazol-2(3H)-one] | 500 to 5000 nM
13 | Cc1cnc(Nc2cnc(C3CC4CCC(C3)N4CC3CC3)c(C)c2)nc1Nc1ccc2oc(=O)[nH]c2c1 (stereo not shown) [II-67, 5-(2-(6-(8-(cyclopropylmethyl)-8-aza-bicyclo[3.2.1]octan-3-yl)-5-methylpyridin-3-ylamino)-5-methylpyrimidin-4-ylamino)benzo[d]oxazol-2(3H)-one] | < 500 nM
14 | COC(=O)N1C2CCC1CC(c1ncc(Nc3ncc(C)c(Nc4ccc5oc(=O)[nH]c5c4)n3)cc1C)C2 (stereo not shown) [II-68, methyl 3-(3-methyl-5-(5-methyl-4-(2-oxo-2,3-dihydrobenzo[d]oxazol-5-ylamino)pyrimidin-2-ylamino)pyridin-2-yl)-8-azabicyclo[3.2.1]octane-8-carboxylate] | < 500 nM
15 | Cc1cnc(Nc2cnc(C3CC4CCC(C3)N4C(=O)C(F)(F)F)c(C)c2)nc1Nc1ccc2oc(=O)[nH]c2c1 (stereo not shown) [II-69, 5-(5-methyl-2-(5-methyl-6-(8-(2,2,2-trifluoroacetyl)-8-aza-bicyclo[3.2.1]octan-3-yl)pyridin-3-ylamino)pyrimidin-4-ylamino)benzo[d]oxazol-2(3H)-one] | < 500 nM
16 | Cc1cnc(Nc2ccc(N3CCN(C(C)C)[C@H](C)C3)nc2)nc1Nc1ccc2oc(=O)[nH]c2c1 [II-70, (R)-5-(2-(6-(4-isopropyl-3-methylpiperazin-1-yl)pyridin-3-ylamino)-5-methylpyrimidin-4-ylamino)benzo[d]oxazol-2(3H)-one] | < 500 nM
17 | Cc1cnc(Nc2ccc(N3CCCC3)nc2)nc1Nc1ccc2oc(=O)[nH]c2c1 [II-71, 5-(5-methyl-2-(6-(pyrrolidin-1-yl)pyridin-3-ylamino)pyrimidin-4-ylamino)benzo[d]oxazol-2(3H)-one] | < 500 nM
18 | Cc1cnc(Nc2ccc(N3CCN(C)CC3)nc2)nc1Nc1cc(C)c2oc(=O)[nH]c2c1 [II-72, 7-methyl-5-(5-methyl-2-(6-(4-methylpiperazin-1-yl)pyridin-3-ylamino)pyrimidin-4-ylamino)benzo[d]oxazol-2(3H)-one] | < 500 nM
19 | Cc1cnc(Nc2ccc(N3CCOCC3)nc2)nc1Nc1cc(C)c2oc(=O)[nH]c2c1 [II-73, 7-methyl-5-(5-methyl-2-(6-morpholinopyridin-3-ylamino)pyrimidin-4-ylamino)benzo[d]oxazol-2(3H)-one] | < 500 nM
20 | Cc1cnc(Nc2ccc(NCC3CC3)nc2)nc1Nc1ccc2oc(=O)[nH]c2c1 [II-74, 5-(2-(6-(cyclopropylmethylamino)pyridin-3-ylamino)-5-methylpyrimidin-4-ylamino)benzo[d]oxazol-2(3H)-one] | < 500 nM
21 | Cc1cnc(Nc2ccc(N3CCN(C)CC3)nc2)nc1Nc1cc(F)c2oc(=O)[nH]c2c1 [II-75, 7-fluoro-5-(5-methyl-2-(6-(4-methylpiperazin-1-yl)pyridin-3-ylamino)pyrimidin-4-ylamino)benzo[d]oxazol-2(3H)-one] | < 500 nM
22 | Cc1cnc(Nc2ccc(N3CCOCC3)nc2)nc1Nc1cc(F)c2oc(=O)[nH]c2c1 [II-76, 7-fluoro-5-(5-methyl-2-(6-morpholinopyridin-3-ylamino)pyrimidin-4-ylamino)benzo[d]oxazol-2(3H)-one] | < 500 nM
23 | Cc1cnc(Nc2cncc(Br)c2)nc1Nc1ccc2oc(=O)[nH]c2c1 [II-77, 5-(2-(5-bromopyridin-3-ylamino)-5-methylpyrimidin-4-ylamino)benzo[d]oxazol-2(3H)-one] | 500 to 5000 nM
24 | Cc1cnc(Nc2ccc(NS(C)(=O)=O)nc2)nc1Nc1ccc2oc(=O)[nH]c2c1 [II-78, N-(5-(5-methyl-4-(2-oxo-2,3-dihydrobenzo[d]oxazol-5-ylamino)pyrimidin-2-ylamino)pyridin-2-yl)methanesulfonamide] | < 500 nM
25 | Cc1cnc(Nc2ccc(NS(C)(=O)=O)nc2)nc1Nc1ccc2oc(=O)n(C)c2c1 [II-79, N-(5-(5-methyl-4-(3-methyl-2-oxo-2,3-dihydrobenzo[d]oxazol-5-ylamino)pyrimidin-2-ylamino)pyridin-2-yl)methanesulfonamide] | < 500 nM
26 | Cc1cnc(Nc2ccc(N3CCC(N(C)C)C3)nc2)nc1Nc1ccc2oc(=O)[nH]c2c1 (stereo not shown) [II-80, 5-(2-(6-(3-(dimethylamino)pyrrolidin-1-yl)pyridin-3-ylamino)-5-methylpyrimidin-4-ylamino)benzo[d]oxazol-2(3H)-one] | < 500 nM
27 | CC(=O)NC1CCN(c2ccc(Nc3ncc(C)c(Nc4ccc5oc(=O)[nH]c5c4)n3)cn2)C1 (stereo not shown) [II-81, N-(1-(5-(5-methyl-4-(2-oxo-2,3-dihydrobenzo[d]oxazol-5-ylamino)pyrimidin-2-ylamino)pyridin-2-yl)pyrrolidin-3-yl)acetamide] | < 500 nM
28 | CCN(CC)C1CCN(c2ccc(Nc3ncc(C)c(Nc4ccc5oc(=O)[nH]c5c4)n3)cn2)C1 (stereo not shown) [II-82, 5-(2-(6-(3-(diethylamino)pyrrolidin-1-yl)pyridin-3-ylamino)-5-methylpyrimidin-4-ylamino)benzo[d]oxazol-2(3H)-one] | < 500 nM
29 | Cc1cnc(Nc2ccc(N3CCC(NC(=O)C(F)(F)F)C3)nc2)nc1Nc1ccc2oc(=O)[nH]c2c1 (stereo not shown) [II-83, 2,2,2-trifluoro-N-(1-(5-(5-methyl-4-(2-oxo-2,3-dihydrobenzo[d]oxazol-5-ylamino)pyrimidin-2-ylamino)pyridin-2-yl)pyrrolidin-3-yl)acetamide] | < 500 nM
30 | Cc1cnc(Nc2ccc(N3CCC(N4CCOCC4)C3)nc2)nc1Nc1ccc2oc(=O)[nH]c2c1 (stereo not shown) [II-84, 5-(5-methyl-2-(6-(3-morpholinopyrrolidin-1-yl)pyridin-3-ylamino)pyrimidin-4-ylamino)benzo[d]oxazol-2(3H)-one] | < 500 nM

Same assay, conditions: tested under conditions described in Example 3 (IL-2 stimulated human primary T-cell proliferation); read-out: ability to inhibit JAK3 activity, IC50 range (Table V)

Row | SMILES | IC50
31 | CCOP(=O)(OCC)N1CCN(c2ccc(Nc3ncc(C)c(Nc4ccc5oc(=O)[nH]c5c4)n3)cn2)C[C@H]1C [II-58, (R)-diethyl 2-methyl-4-(5-(5-methyl-4-(2-oxo-2,3-dihydrobenzo[d]oxazol-5-ylamino)pyrimidin-2-ylamino)pyridin-2-yl)piperazin-1-ylphosphonate] | < 500 nM
